These are literature values, as cited in US20070185065A1, “Combination therapy for coronary artery disease” (priority 2006, published 2007).

Molecules are shown by their SMILES. Read-outs that look alike come from different tables or passages of the source.

The test system of series [1] is patients with chronic stable angina. The note with it: six weeks therapy, metoprolol 200 mg daily.
The test system of series [2] is patients with clinical evidence of HF post-MI.
Series [3] concerns patients with systolic left ventricular dysfunction (SLVD) post-MI.
Series [4] has as its system asymptomatic patients with an LVEF 40 percent after MI. As to conditions: mean follow-up of 42 months.
In series [5] the test system is patients with atherosclerosis not limited to MI. The note with it: compared to aspirin, three year period.
Series [6] concerns proinflammatory cytokines and C-reactive protein (CRP). The note with it: six weeks of therapy.
Series [7] relates to patients with known CHD and an HDL-C concentration below 45 mg/dL already receiving a statin.
For series [8], the system named is patients who have had an acute MI. As to conditions: 160 mg twice daily.

For `COCCc1ccc(OCC(O)CNC(C)C)cc1` (centres unmarked) [metoprolol], in series [1] (long-acting preparations, nifedipine 20 mg BID), the “increase in mean exercise time to 1-mm ST segment depression” value is 70 s. Moreover, the frequency of angina entry in series [1] was “reduced the frequency of angina”.

On to `CCOC(=O)[C@H](CCc1ccccc1)N[C@@H](C)C(=O)N1[C@H](C(=O)O)C[C@@H]2CCC[C@@H]21` [ramipril], for which the mortality in series [2] (603 United Kingdom patients followed for a mean of 59 months, 39 percent placebo) was 28%; in series [2] (average of 15 months follow-up, 23 percent with placebo) it was 17%. The “reduction in sudden death” value in series [2] (average of 15 months follow-up) is reported as 30%. For the same molecule, the “reduction in the incidence of severe, resistant HF” value in series [2] (average of 15 months follow-up) is given as 23%. Besides, in series [2] (average of 15 months follow-up, versus placebo, 95% CI 11 to 40 percent), the decrease in mortality is on record as 27%. The “incidence of severe, resistant HF” value in series [2] (average of 15 months follow-up, 18 percent for placebo) is listed as 14%. Further, the “relative risk reduction (mortality)” value in series [2] (mean of 59 months, 95% CI 15 to 52 percent) is 36%.

Regarding `COC(=O)[C@@H]1CC2=CC(=O)CC[C@]2(C)[C@@]23O[C@@H]2C[C@@]2(C)[C@@H](CC[C@@]24CCC(=O)O4)[C@H]13` [eplerenone], the “reduction in combined primary endpoint of CV mortality and CV hospitalization” value in series [3] (added to standard therapy) is 13%. In addition, the “reduction in CV mortality” value in series [3] (added to standard therapy, P=0.005) is 17%. The “reduction in all-cause mortality” value in series [3] (added to standard therapy, P=0.008) is reported as 15%. Further, the “further reduction in mortality” value in series [3] (subgroup already receiving ACE inhibitors and beta-blockers) is listed as 27%.

Consider `C[C@H](CS)C(=O)N1CCC[C@H]1C(=O)O` [captopril], for which, in series [4], the “reduction in hospitalization for HF” value is reported as 22%, the “reduction in the incidence of recurrent MI” value is on record as 25% and the “reduction in the incidence of severe HF” value is given as 37%. Besides, in series [4] (versus placebo, 95% CI 3 to 32 percent), the decrease in mortality was 19%. Moreover, the mortality in series [4] (25 percent for placebo) is 20%.

Turning to `COC(=O)[C@H](c1ccccc1Cl)N1CCc2sccc2C1` [Clopidogrel, clopidogrel], the “fatal or nonfatal MI” value in series [5] is given as “significant reduction”.

For `CC(=O)Oc1ccccc1C(=O)O` [aspirin], the “markers of inflammation (proinflammatory cytokines and CRP)” value in series [6] was “significantly reduced”.

As to `O=C(O)c1cccnc1` [ER niacin, niacin], the “mean increase in HDL-C” value in series [7] (1000 mg daily, on top of a statin) is recorded as 21%. The HDL-C on treatment was 1.22 mmol/L in series [7] (1000 mg daily, 1.0 mmol/L at baseline) and 47 mg/dL in series [7] (1000 mg daily, 39 mg/dL at baseline). Besides, the “cardiovascular events, percent of patients” value in series [7] (9.6 percent with placebo, p=0.20) is listed as 3.8%. In addition, the “increase in mean carotid intima-media thickness (CIMT)” value in series [7] (after one year of therapy, ultrasound, p=0.23, placebo 0.044 mm) is listed as 0.014 mm.

Turning to `CCCCC(=O)N(Cc1ccc(-c2ccccc2-c2nnn[nH]2)cc1)[C@H](C(=O)O)C(C)C` [valsartan], the “reduction in mortality after an MI compared to an ACE inhibitor” value in series [8] is on record as “as effective as an ACE inhibitor”.

As a reminder, the mortality is the percentage killed.
